# From article PMC5918173, “Characterization of Transglutaminase 2 activity inhibitors in monocytes in vitro and their effect in a mouse model for multiple sclerosis” (PLoS ONE, 2018)
# Assays:
# [1] = biological target: T1, recombinant mouse TG2 (mTG2) (Mus musculus, UniProt P21981); experiment: Inhibition of recombinant Transglutaminase activity (fluorescent substrate), mouse TG2; assay type: biochemical; details: recombinant mouse TG2, Fig 2A
# T1 construct: purchased Zedira
# T1 sequence (P21981 1-686): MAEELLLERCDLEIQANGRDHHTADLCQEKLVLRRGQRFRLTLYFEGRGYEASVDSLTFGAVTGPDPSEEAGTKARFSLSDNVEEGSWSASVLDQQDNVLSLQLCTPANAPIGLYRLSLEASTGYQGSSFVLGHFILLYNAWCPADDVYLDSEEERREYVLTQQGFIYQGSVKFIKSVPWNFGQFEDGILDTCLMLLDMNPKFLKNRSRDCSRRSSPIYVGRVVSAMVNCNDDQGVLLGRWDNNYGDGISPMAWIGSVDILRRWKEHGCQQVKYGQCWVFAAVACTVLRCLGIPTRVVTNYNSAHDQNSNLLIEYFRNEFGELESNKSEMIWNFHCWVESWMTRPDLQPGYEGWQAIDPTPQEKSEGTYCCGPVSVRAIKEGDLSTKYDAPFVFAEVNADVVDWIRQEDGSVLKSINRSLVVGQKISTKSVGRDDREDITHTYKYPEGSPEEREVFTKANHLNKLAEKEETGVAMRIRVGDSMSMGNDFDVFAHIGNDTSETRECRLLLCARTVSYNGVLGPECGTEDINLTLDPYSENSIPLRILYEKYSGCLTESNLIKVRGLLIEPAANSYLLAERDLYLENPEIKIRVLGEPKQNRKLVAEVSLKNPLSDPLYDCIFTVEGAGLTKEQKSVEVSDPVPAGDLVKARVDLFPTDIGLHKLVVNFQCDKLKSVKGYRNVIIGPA
# Method: (§1) The potency and specificity of TG2 inhibitors was assessed with various recombinant TGs, as previously described. The reaction buffer (50 mM Tris, 100 mM NaCl, 10 mM CaCl2, 5 mM H-Gly-OMe*HCl (glycinemethylestherhydrochloride, Sigma), 5 mM hexadimethinbromide (Sigma), 9.1 mM DTT, pH 7.5) was heated to 37°C in a 96 well plate. Then 50 μM of the TG substrate Abz-NE(CAD-DNP)EQVSPLTLLK-OH (Zedira) was added. 1 μg/ml recombinant TG (human TG1, human (hTG2) / mouse TG2 (mTG2) or human Factor XIII (FXIII); Zedira) were added. The two lyophilized TG2 inhibitors (see Fig 1 for chemical structure) BJJF078 (3,4-Dimethoxy-N-(5-[4-(acryloylamino)piperidine-1-sulfonyl]-naphthalen-1-yl)-benzamide, kindly provided by Dr S. El Alaoui, Covalab, France) and ERW1041E (2-[(3-Bromo-4,5-dihydro-isoxazol-5-ylmethyl)-carbamoyl]-pyrrolidine-1—carboxylic acid quinolin-3-ylmethyl ester, kindly provided by Prof C. Khosla, Stanford University, USA) were dissolved in DMSO (stock solution: 54 mM) and stored at -80°C. These stocks were further diluted and various concentrations of the TG2 inhibitors (0.3 nM to 100 μM), were added to the wells (final DMSO concentration per well: 0.06%). The relative increase in fluorescence emission, correlating with enzymatic activity, was measured over 4 h with a fluorimeter (Excitation: 320nm, emission: 405 nm; Fluostar, GMB).
# human TG1 = biological target: T2, human TG1 (Homo sapiens, UniProt P22735); experiment: Inhibition of recombinant Transglutaminase activity (fluorescent substrate), human TG1; assay type: biochemical; details: human recombinant TG1, Fig 2B; read-out: IC50 to inhibit TG1
# T2 construct: purchased Zedira
# T2 sequence (P22735 1-817): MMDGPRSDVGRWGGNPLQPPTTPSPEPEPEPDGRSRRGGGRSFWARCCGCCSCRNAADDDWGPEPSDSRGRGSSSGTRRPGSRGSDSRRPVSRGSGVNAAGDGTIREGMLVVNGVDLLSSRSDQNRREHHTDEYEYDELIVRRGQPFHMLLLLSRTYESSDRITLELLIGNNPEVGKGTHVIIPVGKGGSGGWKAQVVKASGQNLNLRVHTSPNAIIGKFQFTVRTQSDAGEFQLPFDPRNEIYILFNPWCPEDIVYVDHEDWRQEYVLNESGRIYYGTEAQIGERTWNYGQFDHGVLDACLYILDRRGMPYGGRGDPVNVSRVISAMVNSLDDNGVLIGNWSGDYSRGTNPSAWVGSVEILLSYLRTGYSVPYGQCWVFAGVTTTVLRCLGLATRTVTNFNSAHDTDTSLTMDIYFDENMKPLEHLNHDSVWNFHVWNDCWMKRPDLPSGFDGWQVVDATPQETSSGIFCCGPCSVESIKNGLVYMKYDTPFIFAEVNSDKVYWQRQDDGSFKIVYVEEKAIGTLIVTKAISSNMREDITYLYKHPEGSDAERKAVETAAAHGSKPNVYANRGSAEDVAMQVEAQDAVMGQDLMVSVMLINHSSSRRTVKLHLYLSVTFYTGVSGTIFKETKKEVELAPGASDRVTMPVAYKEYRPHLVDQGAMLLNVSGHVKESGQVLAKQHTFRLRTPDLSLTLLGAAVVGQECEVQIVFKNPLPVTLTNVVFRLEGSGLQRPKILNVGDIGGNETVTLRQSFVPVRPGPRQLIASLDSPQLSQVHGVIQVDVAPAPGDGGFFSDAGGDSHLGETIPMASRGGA
# Method: as §1
# [2] = system: inflammatory mediator mRNA in spinal cord; experiment: qPCR of inflammation-related genes in spinal cord of EAE mice; assay type: in vivo, mouse; details: normalized to GAPDH
# Method: Total RNA from snap frozen spinal cord (pooled cervical, thoracic and lumbar region) was isolated using Trizol (Invitrogen) according to the manufacturer’s protocol. RNA concentration and purity was determined with a NanoDrop 2000 spectrophotometer (Thermo Fisher Scientific). Purity was accepted with a 260/230 nm absorbance ratio of 2.00–2.20 and a 260/280 ratio of 1.90.-2.00. For reverse transcription into cDNA, 1 μg of RNA was used with the High-Capacity cDNA Reverse Transcription kit (Life Technologies), using 50 pmol oligo-dT16 primers, according to the manufacturer’s instructions. For quantitative real-time PCR (qPCR), Power SYBR Green Master Mix (Applied Biosystems) was used according to manufacturer’s protocol. Intron-spanning primers (Table 2) were designed with Primer-BLAST [29], purchased from Eurogentec and used at 3.75 pmol per 12.5 ng cDNA in each reaction. Subsequently, qPCR was performed according to the previously published MIQE guidelines. The qPCR reaction was performed in a total volume of 20 μl in MicroAmp Optical 96-well Reaction Plates on a StepOnePlus Real-Time PCR system (Applied Biosystems). The thermal cycling conditions were an initial 10 min at 95°C followed by 50 cycles of 15 s at 95°C and 1 min at 60°C. The reaction specificity was verified by a melt curve analysis. The relative expression level of the target genes was determined by the LinRegPCR software (http://www.hfrc.nl, downloads, applications, lin reg PCR, version 2017) using the following calculation N0 = Nq/ECq (N0 = target quantity, Nq = fluorescence threshold value, E = mean PCR efficiency per amplicon, Cq = threshold cycle. The obtained values were normalized to glyceraldehyde-3-phosphate-dehydrogenase expression (GAPDH).
IC50 [1] [nM],IC50 (human TG1) [nM],Compound,IL-1ra mRNA level in spinal cord versus vehicle ([2]; Fig 7a),IL-1β mRNA level in spinal cord versus vehicle ([2]; Fig 7b),IFNγ mRNA level in spinal cord versus vehicle ([2]; Fig 7c),iNOS mRNA level in spinal cord versus vehicle ([2]; Fig 7e),TNFα mRNA level in spinal cord versus vehicle ([2]; Fig 7d)
54,160,"C=CC(=O)NC1CCN(S(=O)(=O)c2cccc3c(NC(=O)c4ccc(OC)c(OC)c4)cccc23)CC1 [BJJF078, 3,4-Dimethoxy-N-(5-[4-(acryloylamino)piperidine-1-sulfonyl]-naphthalen-1-yl)-benzamide]",–,–,–,–,–
6800,440,"O=C(NCC1CC(Br)=NO1)C1CCCN1C(=O)OCc1cnc2ccccc2c1 (stereo not drawn) [ERW1041E, 2-[(3-Bromo-4,5-dihydro-isoxazol-5-ylmethyl)-carbamoyl]-pyrrolidine-1—carboxylic acid quinolin-3-ylmethyl ester]",not significantly changed,not significantly changed,not significantly changed,slightly but not significantly enhanced,slightly but not significantly enhanced
